This is an account of results in patent publication US20220073470A1, “INHIBITORS OF CGAS ACTIVITY AS THERAPEUTIC AGENTS” (BELLBROOK LABS, LLC, priority 2019, published 2022).

In this test the target is T1, full-length human cGAS (Homo sapiens, UniProt Q8N884).
T1 construct: The cGAS assay was used to screen 100,000 compounds with full-length human cGAS; 6xHis; made in house
In words: cGAS enzymatic assay (FP readout), inhibition of cGAS. It counts as biochemical. On the procedure:
Some exemplary compounds of the disclosure were tested for inhibition of cGAS (30 nM). The results are provided in Table 1 where “A” indicates an IC50 of less than 100 nM, “B” indicates an IC50 of greater than 100 nM and less than 500 nM, “C” indicates an IC50 of greater than 500 nM and less than 1 μM, “D” indicates an IC50 of greater than 1 μM and less than 10 μM, and “E” indicates an IC50 of greater than 10 μM.
A homogenous cGAS enzymatic assay was developed with fluorescence polarization (FP) and time-resolved Forster resonance energy transfer (TR-FRET) readouts (FIG. 2A-D). The cGAS assay was used to screen 100,000 compounds with full-length human cGAS (FIG. 2E), resulting in the identification of novel chemotypes, two of which are further developed in a structure-driven hit-to-lead study (Table 3, below). The assay performance was robust, as indicated by respective Z and Z′ values of 0.59 and 0.63 in the screen; compounds with polarization values greater than three SDs from the mean were considered hits; a scatterplot from 10 plates (3,200 compounds) is shown in FIG. 2D.
Potency and MOA studies, including Mn^2+ sensitivity, are performed using the cGAS enzymatic assay. Dose response experiments are used to determine IC50 values under basal conditions (5 mM MgCl2, 100 μM ATP/GTP), and with the addition of physiological levels of Mn (0.2 mM) using human and mouse cGAS. Ligand optimization is driven by potency with the human enzyme; potency with mouse cGAS informs selection of an appropriate disease model for efficacy studies. Competition with ATP and GTP is assessed by comparing basal IC50 values to those in the presence of saturating ATP or GTP, and subsequently confirmed by measuring velocity vs. substrate at varying ATP or GTP levels. Inhibitor residence times (1/koff) are used as a key parameter for prioritizing compounds and driving SAR, because a longer residence time often results from an allosteric mechanism, and can also correlate with improved cellular activity. The cGAS enzymatic assay is used with the jump dilution method to measure residence times (inhibitor dissociation rates), as described for kinases using the very similar ADP assay. Biophysical methods, including SPR and TSAn, are used as orthologous methods for residence time measurements and kd estimates.

[1] abbreviates: cGAS (30 nM), no Mn2+, read-out: Inhibition cGAS (IC50 class).
Setting [2] is: cGAS (30 nM), with Mn2+, read-out: Inhibition cGAS + Mn^2+ (IC50 class).

Molecules are shown by their SMILES. Read-outs that look alike come from different tables or passages of the source.

T1 sequence (Q8N884 whole entry): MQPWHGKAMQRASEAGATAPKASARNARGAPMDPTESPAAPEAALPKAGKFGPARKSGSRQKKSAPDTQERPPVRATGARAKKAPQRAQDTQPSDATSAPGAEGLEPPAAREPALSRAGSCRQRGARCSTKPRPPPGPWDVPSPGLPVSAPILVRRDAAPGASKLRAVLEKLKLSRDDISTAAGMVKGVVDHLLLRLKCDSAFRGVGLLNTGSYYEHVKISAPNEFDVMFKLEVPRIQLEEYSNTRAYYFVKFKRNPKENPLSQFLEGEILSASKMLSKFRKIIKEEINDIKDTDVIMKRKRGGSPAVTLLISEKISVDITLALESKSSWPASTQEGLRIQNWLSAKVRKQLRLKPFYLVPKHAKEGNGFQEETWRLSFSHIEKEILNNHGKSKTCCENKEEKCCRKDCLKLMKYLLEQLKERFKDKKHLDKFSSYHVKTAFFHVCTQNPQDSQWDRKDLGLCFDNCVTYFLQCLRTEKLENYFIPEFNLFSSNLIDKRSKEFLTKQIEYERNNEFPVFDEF

The IC50 is the concentration at which inhibition is half-maximal. Turning to `O=C(Cc1ccccc1)Nc1ccc(C(=O)Nc2ccc(C(=O)O)cc2)cc1` [Compound 26, 4-(4-(2-phenylacetamido)benzamido)benzoic acid], the IC50 under setting [1] is greater than 10000 nM and the IC50 under setting [2] is greater than 10000 nM.
As for `COc1ccccc1CC(=O)Nc1cccc(C(=O)Nc2ccccc2C(=O)O)c1` [Compound 30, 2-(3-(2-(2-methoxyphenyl)acetamido)benzamido)benzoic acid], under setting [1], the half-inhibitory concentration (IC50) was greater than 10000 nM.
Regarding `Cc1cc2c(-n3ccnc3)ccnc2cc1Cl` [Compound 16, 7-chloro-4-(1H-imidazol-1-yl)-6-methylquinoline], the half-inhibitory concentration (IC50) was 1000 to 10000 nM under setting [1] and 500 to 1000 nM under setting [2].
For the compound `O=C(Nc1ccccc1C(=O)O)c1ccc(NC(=O)c2ccccc2Br)cc1` [Compound 28, 2-(4-(2-bromobenzamido)benzamido)benzoic acid], the IC50 was greater than 10000 nM under setting [1] and greater than 10000 nM under setting [2].
Take `COc1cc2c(N3CCC[C@H]3C(=O)O)nc(-c3ccccc3)nc2cc1Cl` [Compound 17, (7-chloro-6-methoxy-2-phenylquinazolin-4-yl)-L-proline]: the IC50 under setting [1] lay in the range of 1000 to 10000 nM and the IC50 under setting [2] is greater than 10000 nM.
With `CCOc1cc2c(-n3ccnc3)ccnc2cc1Cl` [Compound 23, 7-chloro-6-ethoxy-4-(1H-imidazol-1-yl)quinolone], the IC50 fell in the range of 500 to 1000 nM under setting [1] and 100 to 500 nM under setting [2].
In the case of `c1ccc(-c2ccc3nccc(-n4ccnc4)c3c2)cc1` [Compound 10, 4-(1H-imidazol-1-yl)-6-phenylquinoline], the concentration for half-maximal inhibition (IC50) under setting [2] lay within 1000 to 10000 nM.
For `Clc1ccc2c(-n3ccnc3)cc(-c3ccccc3)nc2c1` [Compound 12, 7-chloro-4-(1H-imidazol-1-yl)-2-phenylquinoline], the IC50 under setting [1] lay within 1000 to 10000 nM and the IC50 under setting [2] was in the range of 100 to 500 nM.
The corresponding values for `Brc1ccc2nccc(-n3ccnc3)c2c1` [Compound 7, 6-bromo-4-(1H-imidazol-1-yl)quinoline] are greater than 10000 nM and 1000 to 10000 nM.
Take `COc1cc2c(-n3ccnc3)ccnc2cc1Br` [Compound 22, 7-bromo-4-(1H-imidazol-1-yl)-6-methoxyquinoline]: the half-maximal inhibitory concentration (IC50) is, setting by setting: under setting [1], 100 to 500 nM; under setting [2], less than 100 nM.
Regarding `Nc1cc(-n2ccnc2)c2ccc(Cl)cc2n1` [Compound 19, 7-chloro-4-(1H-imidazol-1-yl)quinolin-2-amine], the IC50 under setting [1] was in the range of 500 to 1000 nM.
In the case of `O=C(Nc1ccc(C(=O)Nc2ccccc2C(=O)O)cc1)c1ccc(I)cc1` [Compound 27, 2-(4-(4-iodobenzamido)benzamido)benzoic acid], the IC50 was greater than 10000 nM under setting [1] and greater than 10000 nM under setting [2].
As to `O=C(NCc1ccccc1)c1nc2[nH]c3c(c(=O)n2n1)CCC3` [Compound 31, N-benzyl-8-oxo-5,6,7,8-tetrahydro-4H-cyclopenta[d][1,2,4]triazolo[1,5-a]pyrimidine-2-carboxamide], under setting [1], the half-inhibitory concentration (IC50) was greater than 10000 nM.
Take `Clc1ccc2c(-n3ccnc3)ccnc2c1` [Compound 1, 7-chloro-4-(1H-imidazol-1-yl)quinolone]: the half-inhibitory concentration (IC50) was 790 nM (5 mM Mg2+, 0.2 mM Mn2+, read-out: IC50 (5 mM Mg^2+, 0.2 mM Mn^2+)); 5400 nM (5 mM Mg2+, no Mn2+, read-out: IC50 (5 mM Mg^2+)); 1000 to 10000 nM under setting [1]; 100 to 500 nM under setting [2].
As to `Clc1ccc2c(-n3ccnc3)c(-c3ccccc3)cnc2c1` [Compound 13, 7-chloro-4-(1H-imidazol-1-yl)-3-phenylquinoline], the IC50 by setting is: under setting [1], 500 to 1000 nM; under setting [2], 100 to 500 nM.
Turning to `O=C(O)[C@@H](Cc1ccccc1)Nc1ncnc2c1CCCC2` [Compound 32, (5,6,7,8-tetrahydroquinazolin-4-yl)-D-phenylalanine], the 50% inhibitory concentration (IC50) is greater than 10000 nM under setting [1] and greater than 10000 nM under setting [2].
With `COc1ccc2c(-n3ccnc3)ccnc2c1` [Compound 6, 4-(1H-imidazol-1-yl)-7-methoxyquinoline], the IC50 runs as follows: under setting [1], greater than 10000 nM; under setting [2], 1000 to 10000 nM.
As for `COc1cc2c(-n3ccnc3)c(C(=O)O)cnc2cc1Cl` [Compound 15, 7-chloro-4-(1H-imidazol-1-yl)-6-methoxyquinoline-3-carboxylic acid], the IC50 was 100 to 500 nM under setting [1] and less than 100 nM under setting [2].
For `Brc1ccc2c(-n3ccnc3)ccnc2c1` [Compound 4, 7-bromo-4-(1H-imidazol-1-yl)quinoline] the same measures were 1000 to 10000 nM and 100 to 500 nM.
As for `Nc1ccc2nccc(-n3ccnc3)c2c1` [Compound 11, 4-(1H-imidazol-1-yl)quinolin-6-amine], the IC50 under setting [1] is greater than 10000 nM and the IC50 under setting [2] was in the range of 1000 to 10000 nM.
In the case of `Clc1ccc2c(-n3ccnc3)ncnc2c1` [Compound 5, 7-chloro-4-(1H-imidazol-1-yl)quinazoline], the IC50 runs as follows: under setting [1], greater than 10000 nM; under setting [2], greater than 10000 nM.
Turning to `Nc1ccc2c(-n3ccnc3)ccnc2c1` [Compound 9, 4-(1H-imidazol-1-yl)quinolin-7-amine], the half-maximal inhibitory concentration (IC50) under setting [2] is greater than 10000 nM.
With `COc1ccc(CC(=O)Nc2cccc(C(=O)Nc3ccccc3C(=O)O)c2)cc1` [Compound 29, 2-(3-(2-(4-methoxyphenyl)acetamido)benzamido)benzoic acid], the IC50 reads like this: under setting [1], greater than 10000 nM; under setting [2], greater than 10000 nM.
Take `Cc1cc(-n2ccnc2)c2ccc(Cl)cc2n1` [Compound 18, 7-chloro-4-(1H-imidazol-1-yl)-2-methylquinoline]: the IC50 runs as follows: under setting [1], 500 to 1000 nM; under setting [2], 100 to 500 nM.
For `COc1ccc2nccc(-n3ccnc3)c2c1` [Compound 3, 4-(1H-imidazol-1-yl)-6-methoxyquinoline] the same measures were greater than 10000 nM and 1000 to 10000 nM.
As for `Fc1ccc2c(-n3ccnc3)ccnc2c1` [Compound 8, 7-fluoro-4-(1H-imidazol-1-yl)quinoline], the IC50 by setting is: under setting [1], greater than 10000 nM; under setting [2], greater than 10000 nM.
With `CCN(CC)CCCC(C)Nc1c2ccc(Cl)cc2nc2ccc(OC)cc12` (stereo not shown) [quinacrine, reference compound], the “Effect of Mn^2+ on potency against cGAS” value (Mn2+ at physiological concentration (200 μM)) is “significantly less potent”.
Turning to `O=C(Cc1ccccc1)Nc1ccc(C(=O)Nc2ccccc2C(=O)O)cc1` [Compound 25, 2-(4-(2-phenylacetamido)benzamido)benzoic acid], the IC50 reads like this: under setting [1], greater than 10000 nM; under setting [2], greater than 10000 nM.
As for `Cc1ccc(S(=O)(=O)Nc2ccc(C(=O)Nc3ccncc3)cc2)cc1` [Compound 24, 4-((4-methylphenyl)sulfonamido)-N-(pyridin-4-yl)benzamide], the IC50 under setting [1] is greater than 10000 nM.
For the compound `O=C(O)CNc1nc(-c2ccccc2)nc2ccccc12` [Compound 2, (2-phenylquinazolin-4-yl)glycine], the IC50 is, setting by setting: under setting [1], greater than 10000 nM; under setting [2], greater than 10000 nM.
